Key:
Assay type in all cases: in vivo
Settings in all cases: after 13 d
corn (Zea mays, ZEAMX) [1] = assay: Test A pre-emergence, corn
Description: (§1) Seeds of corn (Zea mays, ZEAMX), giant foxtail (Setaria faberi, SETFA), barnyardgrass (Echinochloa crus-galli, ECHCG), ivy-leaved morning glory (Ipomoea hederacea, IPOHE), redroot pigweed (Amaranthus retroflexus, AMARE) and velvetleaf (Abutilon theophrasti, ABUTH) were sown in standard soil in pots. After cultivation for one day under controlled conditions in a glasshouse (at 24/16° C., day/night; 14 h light; 65% humidity), the plants were sprayed with an aqueous spray solution derived from the formulation of the technical active ingredient in acetone/water (50:50) solution containing 0.5% Tween 20 (polyoxyethylene sorbitan monolaurate, CAS RN 9005-64-5) to give a final dose of 15.625, 62.5 or 250 g/ha of test compound.
(§2) The test plants were then grown under controlled conditions in a glasshouse (at 24/16° C., day/night; 14 h light; 65% humidity) and watered twice daily. After 13 d the test was evaluated (100=total damage to plant; 0=no damage to plant).

[2] = tested on: giant foxtail (Setaria faberi, SETFA); assay: Test A pre-emergence, giant foxtail
Description: as §1, §2

[3] = tested on: barnyardgrass (Echinochloa crus-galli, ECHCG); assay: Test A pre-emergence, barnyardgrass
Description: as §1, §2

[4] = tested on: ivy-leaved morning glory (Ipomoea hederacea, IPOHE); assay: Test A pre-emergence, ivy-leaved morning glory
Description: as §1, §2

[5] = tested on: redroot pigweed (Amaranthus retroflexus, AMARE); assay: Test A pre-emergence, redroot pigweed
Description: as §1, §2

[6] = tested on: velvetleaf (Abutilon theophrasti, ABUTH); assay: Test A pre-emergence, velvetleaf
Description: as §1, §2

corn (Zea mays, ZEAMX) [7] = assay: Test A post-emergence, corn
Description: as §1, with “IPOHE)),” for “IPOHE),”, “8 d” for “one day”
(§3) The test plants were then grown on under controlled conditions in a glasshouse (at 24/16° C., day/night; 14 h light; 65% humidity) and watered twice daily. After 13 d the test was evaluated (100=total damage to plant; 0=no damage to plant).

[8] = tested on: giant foxtail (Setaria faberi, SETFA); assay: Test A post-emergence, giant foxtail
Description: as §1, with “IPOHE)),” for “IPOHE),”, “8 d” for “one day”
as §3

[9] = tested on: barnyardgrass (Echinochloa crus-galli, ECHCG); assay: Test A post-emergence, barnyardgrass
Description: as §1, with “IPOHE)),” for “IPOHE),”, “8 d” for “one day”
as §3

[10] = tested on: ivy-leaved morning glory (Ipomoea hederacea, IPOHE); assay: Test A post-emergence, ivy-leaved morning glory
Description: as §1, with “IPOHE)),” for “IPOHE),”, “8 d” for “one day”
as §3

[11] = tested on: redroot pigweed (Amaranthus retroflexus, AMARE); assay: Test A post-emergence, redroot pigweed
Description: as §1, with “IPOHE)),” for “IPOHE),”, “8 d” for “one day”
as §3

[12] = tested on: velvetleaf (Abutilon theophrasti, ABUTH); assay: Test A post-emergence, velvetleaf
Description: as §1, with “IPOHE)),” for “IPOHE),”, “8 d” for “one day”
as §3

SMILES	damage to plant (100=total damage; 0=no damage) ZEAMX (corn (Zea mays, ZEAMX) [1]; Pre-Emergence at 62.5 g/ha)	damage to plant (100=total damage; 0=no damage) ZEAMX (corn (Zea mays, ZEAMX) [1]; Pre-Emergence at 250 g/ha)	damage to plant (100=total damage; 0=no damage) SETFA ([2]; Pre-Emergence at 62.5 g/ha)	damage to plant (100=total damage; 0=no damage) SETFA ([2]; Pre-Emergence at 250 g/ha)	damage to plant (100=total damage; 0=no damage) ECHCG ([3]; Pre-Emergence at 62.5 g/ha)	damage to plant (100=total damage; 0=no damage) ECHCG ([3]; Pre-Emergence at 250 g/ha)	damage to plant (100=total damage; 0=no damage) IPOHE ([4]; Pre-Emergence at 62.5 g/ha)	damage to plant (100=total damage; 0=no damage) IPOHE ([4]; Pre-Emergence at 250 g/ha)	damage to plant (100=total damage; 0=no damage) AMARE ([5]; Pre-Emergence at 62.5 g/ha)	damage to plant (100=total damage; 0=no damage) AMARE ([5]; Pre-Emergence at 250 g/ha)	damage to plant (100=total damage; 0=no damage) ABUTH ([6]; Pre-Emergence at 62.5 g/ha)	damage to plant (100=total damage; 0=no damage) ABUTH ([6]; Pre-Emergence at 250 g/ha)	damage to plant (100=total damage; 0=no damage) ZEAMX (corn (Zea mays, ZEAMX) [7]; Post-Emergence at 15.625 g/ha)	damage to plant (100=total damage; 0=no damage) ZEAMX (corn (Zea mays, ZEAMX) [7]; Post-Emergence at 62.5 g/ha)	damage to plant (100=total damage; 0=no damage) ZEAMX (corn (Zea mays, ZEAMX) [7]; Post-Emergence at 250 g/ha)	damage to plant (100=total damage; 0=no damage) SETFA ([8]; Post-Emergence at 15.625 g/ha)	damage to plant (100=total damage; 0=no damage) SETFA ([8]; Post-Emergence at 62.5 g/ha)	damage to plant (100=total damage; 0=no damage) SETFA ([8]; Post-Emergence at 250 g/ha)	damage to plant (100=total damage; 0=no damage) ECHCG ([9]; Post-Emergence at 15.625 g/ha)	damage to plant (100=total damage; 0=no damage) ECHCG ([9]; Post-Emergence at 62.5 g/ha)	also measured
CN1CC(c2cc(C(F)(F)F)n(C)n2)C(C(=O)Nc2cccc(F)c2OC(F)(F)F)C1=O (racemic) [Compound 16]	0	30	80	90	80	90	0	50	0	0	0	0	0	0	0	0	60	70	0	50	damage to plant (100=total damage; 0=no damage) ZEAMX (corn (Zea mays, ZEAMX) [1]; Pre-Emergence at 15.625 g/ha): 0; damage to plant (100=total damage; 0=no damage) SETFA ([2]; Pre-Emergence at 15.625 g/ha): 0; damage to plant (100=total damage; 0=no damage) ECHCG ([3]; Pre-Emergence at 15.625 g/ha): 0; damage to plant (100=total damage; 0=no damage) IPOHE ([4]; Pre-Emergence at 15.625 g/ha): 0; damage to plant (100=total damage; 0=no damage) AMARE ([5]; Pre-Emergence at 15.625 g/ha): 0; damage to plant (100=total damage; 0=no damage) ABUTH ([6]; Pre-Emergence at 15.625 g/ha): 0; damage to plant (100=total damage; 0=no damage) ECHCG ([9]; Post-Emergence at 250 g/ha): 70; damage to plant (100=total damage; 0=no damage) IPOHE ([10]; Post-Emergence at 15.625 g/ha): 0; damage to plant (100=total damage; 0=no damage) IPOHE ([10]; Post-Emergence at 62.5 g/ha): 0; damage to plant (100=total damage; 0=no damage) IPOHE ([10]; Post-Emergence at 250 g/ha): 0; damage to plant (100=total damage; 0=no damage) AMARE ([11]; Post-Emergence at 15.625 g/ha): 0; damage to plant (100=total damage; 0=no damage) AMARE ([11]; Post-Emergence at 62.5 g/ha): 0; damage to plant (100=total damage; 0=no damage) AMARE ([11]; Post-Emergence at 250 g/ha): 0; damage to plant (100=total damage; 0=no damage) ABUTH ([12]; Post-Emergence at 15.625 g/ha): 0; damage to plant (100=total damage; 0=no damage) ABUTH ([12]; Post-Emergence at 62.5 g/ha): 0; damage to plant (100=total damage; 0=no damage) ABUTH ([12]; Post-Emergence at 250 g/ha): 0
CCc1ccccc1NC(=O)C1C(=O)N(C)CC1c1cc(C(F)(F)F)n(C)n1 (racemic) [Compound 20]	0	20	80	90	80	90	0	0	60	70	0	0	0	0	0	30	70	80	20	60	damage to plant (100=total damage; 0=no damage) ZEAMX (corn (Zea mays, ZEAMX) [1]; Pre-Emergence at 15.625 g/ha): 0; damage to plant (100=total damage; 0=no damage) SETFA ([2]; Pre-Emergence at 15.625 g/ha): 50; damage to plant (100=total damage; 0=no damage) ECHCG ([3]; Pre-Emergence at 15.625 g/ha): 50; damage to plant (100=total damage; 0=no damage) IPOHE ([4]; Pre-Emergence at 15.625 g/ha): 0; damage to plant (100=total damage; 0=no damage) AMARE ([5]; Pre-Emergence at 15.625 g/ha): 50; damage to plant (100=total damage; 0=no damage) ABUTH ([6]; Pre-Emergence at 15.625 g/ha): 0; damage to plant (100=total damage; 0=no damage) ECHCG ([9]; Post-Emergence at 250 g/ha): 80; damage to plant (100=total damage; 0=no damage) IPOHE ([10]; Post-Emergence at 15.625 g/ha): 0; damage to plant (100=total damage; 0=no damage) IPOHE ([10]; Post-Emergence at 62.5 g/ha): 0; damage to plant (100=total damage; 0=no damage) IPOHE ([10]; Post-Emergence at 250 g/ha): 0; damage to plant (100=total damage; 0=no damage) AMARE ([11]; Post-Emergence at 15.625 g/ha): 10; damage to plant (100=total damage; 0=no damage) AMARE ([11]; Post-Emergence at 62.5 g/ha): 10; damage to plant (100=total damage; 0=no damage) AMARE ([11]; Post-Emergence at 250 g/ha): 20; damage to plant (100=total damage; 0=no damage) ABUTH ([12]; Post-Emergence at 15.625 g/ha): 0; damage to plant (100=total damage; 0=no damage) ABUTH ([12]; Post-Emergence at 62.5 g/ha): 0; damage to plant (100=total damage; 0=no damage) ABUTH ([12]; Post-Emergence at 250 g/ha): 0
CCn1nc(C2CN(C)C(=O)C2C(=O)Nc2cccc(F)c2F)c2cccc(F)c21 (stereo not drawn) [Compound 15]	0	0	0	0	0	0	0	0	0	0	0	0	0	0	0	0	0	0	0	0	damage to plant (100=total damage; 0=no damage) ECHCG ([9]; Post-Emergence at 250 g/ha): 0; damage to plant (100=total damage; 0=no damage) IPOHE ([10]; Post-Emergence at 15.625 g/ha): 0; damage to plant (100=total damage; 0=no damage) IPOHE ([10]; Post-Emergence at 62.5 g/ha): 0; damage to plant (100=total damage; 0=no damage) IPOHE ([10]; Post-Emergence at 250 g/ha): 0; damage to plant (100=total damage; 0=no damage) AMARE ([11]; Post-Emergence at 15.625 g/ha): 0; damage to plant (100=total damage; 0=no damage) AMARE ([11]; Post-Emergence at 62.5 g/ha): 0; damage to plant (100=total damage; 0=no damage) AMARE ([11]; Post-Emergence at 250 g/ha): 0; damage to plant (100=total damage; 0=no damage) ABUTH ([12]; Post-Emergence at 15.625 g/ha): 0; damage to plant (100=total damage; 0=no damage) ABUTH ([12]; Post-Emergence at 62.5 g/ha): 0; damage to plant (100=total damage; 0=no damage) ABUTH ([12]; Post-Emergence at 250 g/ha): 0
CN1CC(c2nn(C)c(Cl)c2Br)C(C(=O)Nc2cccc(F)c2F)C1=O (racemic) [Compound 28]	0	0	80	90	70	90	0	0	0	0	0	0	0	0	0	10	30	70	30	50	damage to plant (100=total damage; 0=no damage) ZEAMX (corn (Zea mays, ZEAMX) [1]; Pre-Emergence at 15.625 g/ha): 0; damage to plant (100=total damage; 0=no damage) SETFA ([2]; Pre-Emergence at 15.625 g/ha): 20; damage to plant (100=total damage; 0=no damage) ECHCG ([3]; Pre-Emergence at 15.625 g/ha): 30; damage to plant (100=total damage; 0=no damage) IPOHE ([4]; Pre-Emergence at 15.625 g/ha): 0; damage to plant (100=total damage; 0=no damage) AMARE ([5]; Pre-Emergence at 15.625 g/ha): 0; damage to plant (100=total damage; 0=no damage) ABUTH ([6]; Pre-Emergence at 15.625 g/ha): 0; damage to plant (100=total damage; 0=no damage) ECHCG ([9]; Post-Emergence at 250 g/ha): 70; damage to plant (100=total damage; 0=no damage) IPOHE ([10]; Post-Emergence at 15.625 g/ha): 0; damage to plant (100=total damage; 0=no damage) IPOHE ([10]; Post-Emergence at 62.5 g/ha): 0; damage to plant (100=total damage; 0=no damage) IPOHE ([10]; Post-Emergence at 250 g/ha): 0; damage to plant (100=total damage; 0=no damage) AMARE ([11]; Post-Emergence at 15.625 g/ha): 30; damage to plant (100=total damage; 0=no damage) AMARE ([11]; Post-Emergence at 62.5 g/ha): 40; damage to plant (100=total damage; 0=no damage) AMARE ([11]; Post-Emergence at 250 g/ha): 50; damage to plant (100=total damage; 0=no damage) ABUTH ([12]; Post-Emergence at 15.625 g/ha): 0; damage to plant (100=total damage; 0=no damage) ABUTH ([12]; Post-Emergence at 62.5 g/ha): 0; damage to plant (100=total damage; 0=no damage) ABUTH ([12]; Post-Emergence at 250 g/ha): 0

Reference: patent US20220281848A1, “PYRAZOLE-SUBSTITUTED PYRROLIDINONES AS HERBICIDES” (FMC Corporation, priority 2019, published 2022)
